{"source": "ChEMBL document CHEMBL5096216", "about": "“Rational Design, Synthesis, and Biological Evaluation of Novel S1PR2 Antagonists for Reversing 5-FU-Resistance in Colorectal Cancer” (J Med Chem, 2022)", "key": {"[1]": {"tested_on": "HT-29", "test": "Reversal of 5-FU resistance in human HT-29 cells assessed as fold reduction in 5-Fluorouracil IC50 at 2 uM incubated for 48 hrs", "assay_type": "functional"}, "[2]": {"tested_on": "SW620/5-FU", "test": "Antiproliferative activity against human SW620/5-FU cells assessed as reduction in cell viability incubated for 48 hrs by MTT assay", "assay_type": "functional, cell-based"}, "[3]": {"tested_on": "HT-29", "test": "Reversal of 5-FU resistance in human HT-29 cells assessed as fold reduction in 5-Fluorouracil IC50 at 5 uM incubated for 48 hrs", "assay_type": "functional"}, "[4]": {"tested_on": "SW620/5-FU", "test": "Antitumor activity against human SW620/5-FU cells xenografted in nude mouse assessed as tumor volume at 1 mg/kg/day, iv measured on day 1 in presence of 5-FU (reference value: 105 +/- 14 mm3)", "assay_type": "functional", "settings": "time 1 day"}, "[5]": {"tested_on": "SW620/5-FU", "test": "Induction of apoptosis in human SW620/5-FU cells assessed as viable cells at 10 uM incubated for 24 hrs by Annexin-V/PI staining based flow cytometry assay (reference value: 94.3%)", "assay_type": "functional", "settings": "read-out: Activity"}, "[6]": {"tested_on": "SW620/5-FU", "test": "Antitumor activity against human SW620/5-FU cells xenografted in nude mouse assessed as tumor volume at 5 mg/kg/day, iv measured on day 1 in presence of 5-FU (reference value: 105 +/- 14 mm3)", "assay_type": "functional", "settings": "time 1 day"}, "[7]": {"tested_on": "HCT-116", "test": "cells", "settings": "Homo sapiens, HCT-116, 48 h", "description": "Reversal of 5-FU resistance in human HCT-116 cells overexpressing DPD assessed as reduction in 5-Fluorouracil IC50 at 5 uM incubated for 48 hrs (Rvb = 1836.66 +/- 87.95 %)"}, "[8]": {"tested_on": "SW620/5-FU", "test": "Induction of apoptosis in human SW620/5-FU cells assessed as necrotic cells at 20 uM incubated for 24 hrs by Annexin-V/PI staining based flow cytometry assay (reference value: 0%)", "assay_type": "functional"}, "[9]": {"test": "Metabolic stability in rat liver homogenate assessed as half life at 1 mg/ml incubated for 48 hrs by HPLC analysis", "assay_type": "ADME, tissue-based"}, "[10]": {"test": "Induction of intracellular 5-FU accumulation in human SW620/5-FU cells measured after 6 hrs by HPLC analysis (reference value: 4.3 microg/ml)", "assay_type": "functional"}, "[11]": {"test": "Toxicity in nude mouse xenografted with human SW620/5-FU cells assessed as morphological changes in kidney at 1 to 10 mg/kg/day, iv by hematoxylin-eosin staining based analysis", "assay_type": "organism-based", "settings": "in vivo, dose 1-10 mg/kg/day"}, "[12]": {"tested_on": "SW620/5-FU", "test": "Antitumor activity against human SW620/5-FU cells xenografted in nude mouse assessed as tumor growth inhibition at 5 mg/kg/day, iv in presence of 5-FU", "assay_type": "functional", "settings": "read-out: TGI"}, "[13]": {"tested_on": "SW620/5-FU", "test": "Antitumor activity against human SW620/5-FU cells xenografted in nude mouse assessed as tumor growth inhibition at 1 mg/kg/day, iv in presence of 5-FU", "assay_type": "functional", "settings": "read-out: TGI"}, "[14]": {"tested_on": "SW620/5-FU", "test": "Inhibition of FBAL stimulated DPD expression in human SW620/5-FU cells at 10 uM incubated for 72 hrs by Western blot analysis", "assay_type": "functional, cell-based"}, "[15]": {"test": "Metabolic stability in rat plasma assessed as compound remaining at 1 mg/ml measured after 48 hrs by HPLC analysis", "assay_type": "ADME, cell-free", "settings": "read-out: Stability"}, "[16]": {"test": "Toxicity in nude mouse xenografted with human SW620/5-FU cells assessed as morphological changes in liver at 1 to 10 mg/kg/day, iv by hematoxylin-eosin staining based analysis", "assay_type": "organism-based", "settings": "in vivo, dose 1-10 mg/kg/day"}, "[17]": {"molecular_target": "T1, Sphingosine 1-phosphate receptor 4 (Homo sapiens, UniProt O95977)", "T1 sequence (O95977 whole entry)": "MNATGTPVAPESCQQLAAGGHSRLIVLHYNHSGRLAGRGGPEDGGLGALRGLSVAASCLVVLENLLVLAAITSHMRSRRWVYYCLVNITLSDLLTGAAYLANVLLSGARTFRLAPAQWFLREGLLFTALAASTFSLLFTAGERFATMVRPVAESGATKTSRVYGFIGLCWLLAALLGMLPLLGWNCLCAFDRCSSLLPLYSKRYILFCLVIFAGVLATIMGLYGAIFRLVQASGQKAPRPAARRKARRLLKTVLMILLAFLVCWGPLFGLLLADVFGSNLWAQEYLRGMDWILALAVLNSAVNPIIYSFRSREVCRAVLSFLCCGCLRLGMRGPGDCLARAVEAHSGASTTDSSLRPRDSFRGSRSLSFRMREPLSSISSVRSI", "test": "Binding affinity to S1PR4 (unknown origin) assessed as dissociation constant by surface plasmon resonance analysis"}, "[18]": {"test": "Cytotoxicity against human NCM460 cells assessed as reduction in cell viability incubated for 48 hrs by MTT assay", "assay_type": "toxicity, cell-based"}, "[19]": {"test": "Toxicity in nude mouse xenografted with human SW620/5-FU cells assessed as morphological changes in spleen at 1 to 10 mg/kg/day, iv by hematoxylin-eosin staining based analysis", "assay_type": "organism-based", "settings": "in vivo, dose 1-10 mg/kg/day"}, "[20]": {"tested_on": "SW620/5-FU", "test": "Induction of apoptosis in human SW620/5-FU cells assessed as late apoptotic cells at 20 uM incubated for 24 hrs by Annexin-V/PI staining based flow cytometry assay (reference value: 2.97%)", "assay_type": "functional"}, "[21]": {"tested_on": "SW620/5-FU", "test": "cells", "settings": "Homo sapiens, 48 h"}, "[22]": {"tested_on": "SW620/5-FU", "test": "Downregulation of H3K27me3 expression in human SW620/5-FU cells at 10 uM incubated for 72 hrs by Western blot analysis", "assay_type": "functional, cell-based"}, "[23]": {"test": "Toxicity in nude mouse xenografted with human SW620/5-FU cells assessed as morphological changes in heart at 1 to 10 mg/kg/day, iv by hematoxylin-eosin staining based analysis", "assay_type": "organism-based", "settings": "in vivo, dose 1-10 mg/kg/day"}, "[24]": {"tested_on": "SW620/5-FU", "test": "Reversal of 5-FU resistance in human SW620/5-FU cells assessed as fold reduction in 5-Fluorouracil IC50 at 2 uM incubated for 48 hrs", "assay_type": "functional"}, "[25]": {"tested_on": "HT-29", "test": "cells", "settings": "Homo sapiens, HT-29, 48 h", "description": "Reversal of 5-FU resistance in human HT-29 cells assessed as reduction in 5-Fluorouracil IC50 at 5 uM incubated for 48 hrs (Rvb = 2768.36 +/- 89.25 %)"}, "[26]": {"test": "Metabolic stability in human plasma assessed as half life at 1 mg/ml incubated for 48 hrs by HPLC analysis", "assay_type": "ADME, cell-free"}, "[27]": {"tested_on": "SW620/5-FU", "test": "Induction of apoptosis in human SW620/5-FU cells assessed as early apoptotic cells at 20 uM incubated for 24 hrs in presence of 5-FU by Annexin-V/PI staining based flow cytometry assay (reference value: 2.73%)", "assay_type": "functional"}, "[28]": {"molecular_target": "T2, Sphingosine 1-phosphate receptor 2 (Homo sapiens, UniProt O95136)", "T2 sequence (O95136 whole entry)": "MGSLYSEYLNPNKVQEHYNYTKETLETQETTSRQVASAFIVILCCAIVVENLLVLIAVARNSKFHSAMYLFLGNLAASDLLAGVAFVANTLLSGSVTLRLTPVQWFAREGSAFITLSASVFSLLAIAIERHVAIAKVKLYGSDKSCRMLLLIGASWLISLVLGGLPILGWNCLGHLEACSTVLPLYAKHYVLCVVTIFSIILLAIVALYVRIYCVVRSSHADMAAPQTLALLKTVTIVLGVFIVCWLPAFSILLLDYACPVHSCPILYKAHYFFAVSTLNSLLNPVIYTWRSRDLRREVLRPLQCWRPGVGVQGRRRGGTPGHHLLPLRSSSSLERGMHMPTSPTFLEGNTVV", "test": "Inhibition of FBAL stimulated S1PR2 in human SW620/5-FU cells incubated for 72 hrs by Western blot analysis", "assay_type": "cell-based", "settings": "dose 5-15 µM, DDE = dose-dependent effect"}, "[29]": {"tested_on": "SW620/5-FU", "test": "Antitumor activity against human SW620/5-FU cells xenografted in nude mouse assessed as tumor volume at 5 mg/kg/day, iv measured on day 15 in presence of 5-FU (reference value: 1991 +/- 469 mm3)", "assay_type": "functional", "settings": "time 15 day"}, "[30]": {"tested_on": "SW620/5-FU", "test": "cells", "settings": "Homo sapiens, 48 h", "remark": "listed apart in the source"}, "[31]": {"tested_on": "SW620/5-FU", "test": "Induction of apoptosis in human SW620/5-FU cells assessed as early apoptotic cells at 20 uM incubated for 24 hrs by Annexin-V/PI staining based flow cytometry assay (reference value: 2.73%)", "assay_type": "functional"}, "[32]": {"tested_on": "HCT-116", "test": "Reversal of 5-FU resistance in human HCT-116 cells overexpressing DPD assessed as reduction in cell viability incubated for 48 hrs in presence of 5-FU by MTT assay", "assay_type": "functional, cell-based", "settings": "HCT-116, 48 h"}, "[33]": {"molecular_target": "T2, Sphingosine 1-phosphate receptor 2", "test": "Binding affinity to S1PR2 (unknown origin) assessed as dissociation constant by surface plasmon resonance analysis"}}, "note": "The source made the active and inactive calls. The rule behind the calls is not given here.", "data": [{"compound": "CCC(CC)CN1CCN(C(=O)Nc2cc(Oc3ccc(F)cc3)cc(Oc3ccc(C(=O)NC)cc3)c2)CC1", "values": [{"measurement": "fold change (FC)", "setting": "[1]", "value": 66}, {"measurement": "IC50", "setting": "[2]", "value": "> 100", "unit": "µM"}, {"measurement": "fold change (FC)", "setting": "[3]", "value": 127}, {"measurement": "Activity", "setting": "[4]", "value": 104, "unit": "mm3"}, {"measurement": "viability at 10 µM", "setting": "[5]", "value": 93.8, "unit": "%"}, {"measurement": "Activity", "setting": "[6]", "value": 103, "unit": "mm3"}, {"measurement": "IC50", "setting": "[7]", "value": 45.1, "unit": "µM"}, {"measurement": "Activity", "setting": "[8]", "value": 0.086, "unit": "%"}, {"measurement": "half-life at 1 mg/ml", "setting": "[9]", "value": "> 2880", "unit": "min"}, {"measurement": "Activity", "setting": "[10]", "value": 12.2, "unit": "µg/mL"}, {"measurement": "Activity", "setting": "[11]", "value": "Non-Toxic"}, {"measurement": "inhibition in vivo at 5 mg/kg/day", "setting": "[12]", "value": 66.8, "unit": "%"}, {"measurement": "inhibition in vivo at 1 mg/kg/day", "setting": "[13]", "value": 49.5, "unit": "%"}, {"measurement": "inhibition", "setting": "[14]", "value": "Active"}, {"measurement": "remaining at 48 h, 1 mg/ml", "setting": "[15]", "value": 93, "unit": "%"}, {"measurement": "Activity", "setting": "[16]", "value": "Non-Toxic"}, {"measurement": "Kd", "setting": "[17]", "value": "> 100", "unit": "nM"}, {"measurement": "IC50 at 48 hrs", "setting": "[18]", "value": "> 100", "unit": "µM"}, {"measurement": "Activity", "setting": "[19]", "value": "Non-Toxic"}, {"measurement": "Activity", "setting": "[20]", "value": 4.01, "unit": "%"}, {"measurement": "IC50", "setting": "[21]", "value": 36.8, "unit": "µM"}, {"measurement": "Activity", "setting": "[22]", "value": "Active"}, {"measurement": "Activity", "setting": "[23]", "value": "Non-Toxic"}, {"measurement": "fold change (FC)", "setting": "[24]", "value": 42}, {"measurement": "IC50", "setting": "[25]", "value": 21.8, "unit": "µM"}, {"measurement": "half-life at 1 mg/ml", "setting": "[26]", "value": "> 2880", "unit": "min"}, {"measurement": "Activity", "setting": "[27]", "value": 28.6, "unit": "%"}, {"measurement": "inhibition", "setting": "[28]", "value": "Dde"}, {"measurement": "Activity", "setting": "[29]", "value": 662, "unit": "mm3"}, {"measurement": "IC50", "setting": "[30]", "value": 17.6, "unit": "µM"}, {"measurement": "Activity", "setting": "[31]", "value": 3.76, "unit": "%"}, {"measurement": "IC50", "setting": "[32]", "value": 6.42, "unit": "µM"}, {"measurement": "Kd", "setting": "[33]", "value": 0.73, "unit": "nM"}]}]}
